Legend:
[1] = target: T1, CXCR4 (human T cell strain CEM cells) (Homo sapiens, UniProt P61073); test: Inhibition of binding human SDF-1 to CEM cells (125I-SDF-1); conditions: 4° C., 60 minutes
T1 construct: a human T cell strain in which CXCR4 is known to be expressed; endogenous in cells; host or cells: CEM cells (human T cell strain)
Protocol: Specifically, as a system of screening a compound that inhibits the binding between SDF-1 and CXCR4, for example a system of measuring the binding between iodine-labeled SDF-1 and a human T cell strain in which CXCR4 is known to be expressed is operable.
Study for Inhibition of Binding Human SDF-1 to CEM Cells
To human T cell strain CEM cells in a binding buffer (containing HEPES and BSA), the test compound and ^125I-SDF-1 (PerkinElmer) were added and the mixture was incubated at 4° C. for 60 minutes. The reacted CEM cells were rapidly filtrated with a GF/B membrane filter plate (Packard) to adsorb. The plate was washed with phosphate buffered saline (hereinafter abbreviated to PBS) three times and then dried. Microscint+20 (Packard) was added thereto. An amount of the radioactivity bound to the CEM cells was measured using Top Count (Packard) and inhibition (%) of the test compound was calculated according to the following equation:
Inhibition={(Et−Ea)/(Et−Ec)}×100 [Equation 1]
Et: Amount of radioactivity when the test compound is not added,
Ec: Amount of radioactivity when non-radioactive SDF-1 (Pepro Tech) is added in an amount of 1,000 times as much as ^125I-SDF-1 as a test compound, and
Ea: Amount of radioactivity when the test compound is added.

[2] = Artificial lipid membrane binding using Biacore S51 system; conditions: for Value of binding response (RU): DOPA liposome, 50 μM compound, PBS/5% DMSO pH 7.4, 37° C., corrected value; for Determination (artificial lipid membrane binding): positive = corrected binding response 150 or more
Protocol: Artificial Lipid Membrane Binding Account by using Biacore® S51 System
10 mM of 1,2-dioleoyl-sn-glycero-3-phosphate monosodium salt (hereinafter abbreviated as DOPA) chloroform solution was evaporated to dryness by means of an aspirator, and 0.6 mL of PBS/5% dimethyl sulfoxide (hereinafter abbreviated as DMSO) was added. The chloroform solution was fully suspended by means of a vortex mixer, and the freezing and thawing were repeated for 5 times. Liposome was created by means of a liposome preparation instrument (manufactured by Avestin Inc.) and two syringes, and was diluted to 0.5 mM with PBS/5% DMSO just prior to immobilization.
(2) Measurement Compound Preparation
38 μl of 1×PBS is added to 2 μl of a DMSO solution (10 mM), and further the 360 μl of 1×PBS/5% DMSO was added and the 50 μM of final concentration in PBS/5% DMSO was prepared and measured.
All of the following analysis used Biacore® S51 system and the measurement conditions were set by Biacore S51 Control Soft.
The measurement temperature was set to be 37° C., and PBS/5% DMSO (pH 7.4 or 6.0) was used as a buffer. Series S Sensor Chip L1 was used for a sensor chip. DOPA was immobilized in one of the measuring spots on the sensor surface and the central spot was used as a reference.
Immobilization of liposome was conducted at a flow rate of 10 μL/min for about 3 minutes and then the compound was added at a flow rate of 30 μL/min and the interaction was measured. The measurement conditions are as follows:
Assay buffer: PBS/5% DMSO (pH 7.4) Measurement temperature: 37° C. Sensor chip: Series S Sensor Chip L1 Flow rate: 10 μL/min at the time of the liposome immobilization; 30 μL/min at the time of the measurement of interaction with the compound Regeneration: 20 mM CHAPS (3-[(3-cholamidopropyl)dimethylammonio]-1-propanesulfonate), isopropylalcohol/aqueous 50 mM sodium hydroxide solution=40/60 (volume ratio) mixture solution (60 seconds)
The data processing was conducted by means of method of Abdiche et al., (Analytical biochemistry, 328, 233-243 (2004)) by using Biacore S51 Evaluation Soft.
Regarding the value of binding response (RU) in which the value of reference was subtracted, it was divided by a sample molecular weight after minute error of the DMSO concentration included in the sample solution was corrected. In addition, the value obtained here was divided by an amount of capture at the time of the cycle because the value obtained here was proportional to the amount of capture of the liposome and the value was multiplied by a million to be considered as a corrected value (Corrected value=1,000,000×RU (test compound)/molecular quantity (test compound) RU (liposome)).
The compound wherein a value of the binding response after the correction was 150 or more was determined as positive.

[3] = test system: CHL/IU (cell line derived from a Chinese hamster lung); test: Phospholipidosis detecting system using fluorescent labeling phospholipid analog (NBD-PE); assay type: cell-based; conditions: for Rate of increase of phospholipid accumulation (%) (compound dose: 200 μM): CHL/IU cells, compound dose 200 μM, about 48 hours, relative to NBD-PE control; for Determination (phospholipidosis, NBD-PE system): positive = 25% or more of the maximum increase rate of amiodarone
Protocol: Investigation with Phospholipidosis Detecting System using Fluorescent Labeling Phospholipidosis Analog under Severity Condition (1) Phospholipid Accumulation Measurement 100 μL/well as required (1 dose 2 wells) of cell suspension of CHL/IU (cell line derived from a Chinese hamster lung) (7×10^4 cells/mL) prepared by MEM (minimum essential medium) culture medium was added to a 96-well plate (96-well clear-bottom plate), and cultured for about 24 hours. After culture, the supernatant of the 96-well plate was removed, and the 100 μL/well compounds of each concentration dissolved and suspended in an MEM including 25 μmol/L nitrobenzoxadiazole dipalmitoyl phosphatidylethanolamine (NBD-PE) (hereinafter abbreviated as a NPD-PE medium) were added and treated for about 48 hours. The treatment concentrations of each compound were set to be 5, 50, 100 and 200 μM. The positive control substance was set to be amiodarone hydrochloride, and the treatment concentrations were set to be 1.25, 2.5, 5, 10 and 20 μM. In addition, 5-well untreated controls (only MEM) and 5-well NBD-PE controls (made by means of adding a 1/100 amount of DMSO to the NBD-PE culture medium) were set per compound, and cultured in the same manner. After finishing the culture, the cultures were washed twice with phosphate buffered saline (hereinafter abbreviated as PBS) (−) 100 μL/well, and the MEM (100 μL) was added to all of the treatment wells including two empty wells for WST-1 background controls and cultured for about a half hour. The fluorescence intensities of each well were measured by using a microplate reader (manufactured by Molecular Devices Inc., SPECTRA max M2; the excitation wavelength 485 nm/fluorescence wavelength 535 nm). (2) Analysis Using the average values of each dose×2 wells, a phospholipid increase rate (%) to the NBD-PE control was calculated by using the following calculating formula: Rate of increase of phospholipid accumulation (%)=100×{(test compound fluorescence intensity−non-treated control fluorescence intensity)/(NBD-PE control fluorescence intensity−non-treated control fluorescence intensity)} [Equation 2] (3) Cytotoxicity Assay 96-well plate measured in the phospholipid accumulation measurement was measured by means of Plate Reader (manufactured by Molecular Devices Inc., SPECTRA max M2) with the main wavelength of 450 nm and the correct wavelength of 690 nm to calculate a Pre value. An amount of 5 μL/well of Premix WS T-1 was added to each of the 96-hole plates by which Pre measurement was conducted. After culture for 2 to 4 hours, the 96-well plate was measured as well as the Pre measurement to calculate an Aft value. Then, the background control value was subtracted from the each measured value. A value which was calculated by subtracting the Pre value from the Aft value was used, then the cell growth rate (%) was calculated by using the following calculating formula: Cell growth rate (%)=100×[(test substance OD)/(NBD-PE control OD)] [Equation 3] (4) Determination A test dose that indicated value of 25% or more of the maximum phospholipid accumulation increase rate of amiodarone which was the positive control was determined as positive. In addition, the dose whose cell growth rate was equal to or less than 50% in the cytotoxicity assay was not used for determination of existence or nonexistence of a phospholipidosis inductive effect.

[4] = Measurement of maximum plasma level (Cmax) and stationary state distribution volume (Vss); conditions: male, Crl:CD(SD), rat, iv, 1 mg/kg
Protocol: Measurement of Maximum Plasma Level (Cmax) and Stationary State Distribution Volume (Vss)
A compound to be evaluated is weighed, dissolved in WellSolve (trade name; manufactured by Celeste Corporation) which is heated to 60° C. and adjusted to 20 mg/mL; thereafter, the test compound is diluted by 10 times with distilled water for injection, and further diluted by 2 times with saline solution, by which intravenously administered solution is eventually made. A compound to be evaluated is dissolved in WellSolve which is heated to 60° C. and adjusted to 50 mg/mL; thereafter, the compound to be evaluated is diluted with distilled water for injection and adjusted to 1 mg/mL. Five compounds (one set) were mixed in the same amount and adjusted to final concentration of 0.2 mg/mL per one compound, by which orally administered solution is eventually made. […] The administration is conducted under fasting conditions; water is freely ingested. In the case of intravenous administration, a 0.35 mL of blood sample is taken from cervical vein by using Heparinized Syringe at 5 minutes, 15 minutes, 30 minutes, 1 hour, 2 hours, 4 hours, 6 hours, 8 hours, and 24 hours after administration. […] The obtained blood is stored in ice, and after centrifugation at 12,000 rpm for 3 minutes, blood plasma is fractionated. In the case of intravenous administration, the blood plasma sample preserved at a temperature of −80° C. is dissolved; inner standard solution (100 μL) and acetonitrile (2 mL) are added to the blood plasma sample (100 μL) and stirred, and the sample is centrifuged at 2,500 rpm for 10 minutes.
After the supernatant centrifuged is evaporated to dryness by means of a centrifugal concentrator, 67% dimethyl sulfoxide solution (150 μL) is added to the residue and dissolves them again and 20 μL of the solution is analyzed by means of LC/MS/MS.
Measurement device: Waters 2795 (manufactured by Waters Corporation) Analytical column: Unison UK-C18, 3.0 μm particle size, 2.0 mm×30 mm (manufactured by Imtakt Corporation) Analytical column temperature: Room temperature Flow rate: 200 μL/min Moving bed: 5 mM IPC-PFAA-7 solution/acetonitrile (9/1→1/9)
Measurement device: Quatro micro API (manufactured by Micromass Communications Inc.) Scan type: MPM
The monitor ion which was suitable for each sample was selected.
A portion of the compound to be intravenously administered was subjected to the following treatment. The blood plasma sample preserved at a temperature of −80° C. is dissolved; inner standard solution (50 μL) and acetonitrile (1 mL) are added to the blood plasma sample (50 μL) and stirred, and the sample is centrifuged at 3,000 rpm for 10 minutes. After the supernatant is evaporated to dryness by means of a centrifugal concentrator, the residue was redissolved in water/acetonitrile (1/1) and the solution is analyzed by means of LC/MS/MS under the following conditions.
Measurement device: 1200 series system (manufactured by Agilent Technologies) Analytical column: Asahipak OOD-50 2D, 2×150 mm (manufactured by Showa Denko K.K.) Analytical column temperature: Room temperature Moving bed: 5 mM IPC—PFAA-7 solution/acetonitrile (gradient) Flow rate: 200 μL/min

T1 sequence (P61073 whole entry): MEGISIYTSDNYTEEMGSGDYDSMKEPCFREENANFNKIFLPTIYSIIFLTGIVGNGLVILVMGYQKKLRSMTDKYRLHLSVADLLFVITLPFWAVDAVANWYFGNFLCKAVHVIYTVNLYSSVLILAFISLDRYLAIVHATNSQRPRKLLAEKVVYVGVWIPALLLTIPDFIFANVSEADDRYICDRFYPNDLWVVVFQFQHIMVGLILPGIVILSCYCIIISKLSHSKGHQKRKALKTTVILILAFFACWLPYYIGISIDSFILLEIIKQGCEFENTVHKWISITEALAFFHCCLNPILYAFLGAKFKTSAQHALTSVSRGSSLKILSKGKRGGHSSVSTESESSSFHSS

Compound | IC50 [1] [nM] | Value of binding response (RU) [2] [RU] | Determination (artificial lipid membrane binding) [2] | Rate of increase of phospholipid accumulation (%) (compound dose: 200 μM) [3] | Determination (phospholipidosis, NBD-PE system) [3] | Vd [4] [L/kg]
COC(=O)Cc1ccc(CN(Cc2ncc[nH]2)Cc2nccn2CCCN2CCC3(CCN(CC(C)C)CC3)C2)cc1 [Example 21(4), Methyl (4-{[(1H-imidazol-2-ylmethyl)({1-[3-(8-isobutyl-2,8-diazaspiro[4.5]deca-2-yl)propyl]-1H-imidazol-2-yl}methyl)amino]methyl}phenyl)acetate] | 7.4 | – | – | – | – | –
O=C(O)COc1ccc(CN(Cc2ncc[nH]2)Cc2nccn2CCCN2CCC3(CCN(C4CCCCC4)CC3)C2)cc1 [Example 41(6), (4-{[({1-[3-(8-cyclohexyl-2,8-diazaspiro[4.5]deca-2-yl)propyl]-1H-imidazol-2-yl}methyl)(1H-imidazol-2-ylmethyl)amino]methyl}phenoxy)acetic acid] | 4.4 | 72.9 | Negative | 16 | Negative | –
CCOC(=O)COc1ccc(CN(Cc2ncc[nH]2)Cc2nccn2CCCN2CCC3(CCN(C(CC)CC)CC3)C2)cc1 [Example 42, Ethyl [4-({[(1-{3-[8-(1-ethylpropyl)-2,8-diazaspiro[4.5]deca-2-yl]propyl}-1H-imidazol-2-yl)methyl] (1H-imidazol-2-ylmethyl)amino}methyl)phenoxy]acetate] | 3 | – | – | – | – | –
O=C(O)COc1cccc(CN(Cc2ncc[nH]2)Cc2nccn2CCCN2CCC3(CCN(C4CCCCC4)CC3)C2)c1 [Example 41(7), (3-{[({1-[3-(8-cyclohexyl-2,8-diazaspiro[4.5]deca-2-yl)propyl]-1H-imidazol-2-yl}methyl)(1H-imidazol-2-ylmethyl)amino]methyl}phenoxy)acetic acid] | 4.5 | 63.6 | Negative | 21 | Negative | –
CCOC(=O)COc1ccc(CN(Cc2ncc[nH]2)Cc2nccn2CCCN2CCC3(CCN(C4CCCCC4)CC3)C2)cc1 [Example 40(12), Ethyl (4-{[({1-[3-(8-cyclohexyl-2,8-diazaspiro[4.5]deca-2-yl)propyl]-1H-imidazol-2-yl}methyl)(1H-imidazol-2-ylmethyl)amino]methyl}phenoxy)acetate] | ≤ 3 | – | – | – | – | –
CCC(CC)N1CCC2(CCN(CCCn3ccnc3CN(Cc3cccc(OCC(=O)O)c3)Cc3ncc[nH]3)C2)CC1 [Example 43(1), [3-({[(1-{3-[8-(1-ethylpropyl)-2,8-diazaspiro[4.5]deca-2-yl]propyl}-1H-imidazol-2-yl)methyl](1H-imidazol-2-ylmethyl)amino}methyl)phenoxy]acetic acid] | 6.3 | 41.2 | Negative | 14 | Negative | 0.42
CCOC(=O)COc1cccc(CN(Cc2ncc[nH]2)Cc2nccn2CCCN2CCC3(CCN(C(CC)CC)CC3)C2)c1 [Example 42(1), Ethyl [3-({[(1-{3-[8-(1-ethylpropyl)-2,8-diazaspiro[4.5]deca-2-yl]propyl}-1H-imidazol-2-yl)methyl] (1H-imidazol-2-ylmethyl)amino}methyl)phenoxy]acetate] | ≤ 3 | – | – | – | – | –
CC(C)CN1CCC2(CC1)CCN(CCCn1ccnc1CN(Cc1ccc(CC(=O)O)cc1)Cc1ncc[nH]1)C2 [Example 22(4), (4-{[(1H-imidazol-2-ylmethyl)({1-[3-(8-isobutyl-2,8-diazaspiro[4.5]deca-2-yl)propyl]-1H-imidazol-2-yl}methyl)amino]methyl}phenyl)acetic acid] | 20.7 | 23.4 | Negative | 16 | Negative | 1.1
CCC(CC)N1CCC2(CCN(CCCn3ccnc3CN(Cc3ccc4cc(OCC(=O)O)ccc4c3)Cc3ncc[nH]3)C2)CC1 [Example 43(3), {[6-({[(1-{3-[8-(1-ethylpropyl)-2,8-diazaspiro[4.5]deca-2-yl]propyl}-1H-imidazol-2-yl)methyl](1H-imidazol-2-ylmethyl)amino}methyl)-2-naphthyl]oxy}acetic acid] | 13.6 | – | – | – | – | –
CCOC(=O)CCCn1ccnc1CN(C)Cc1nccn1CCCN1CCC2(CCN(CC(C)C)CC2)C1 [Example 47(4), Ethyl 4-(2-{[({1-[3-(8-isobutyl-2,8-diazaspiro[4.5]deca-2-yl)propyl]-1H-imidazol-2-yl}methyl)(methyl)amino]methyl}-1H-imidazol-1-yl)butanoate] | 4.3 | – | – | – | – | –
CCC(CC)N1CCC2(CCN(CCCn3ccnc3CN(Cc3cccc(SCC(=O)O)c3)Cc3ncc[nH]3)C2)CC1 [Example 43(2), {[3-({[(1-{3-[8-(1-ethylpropyl)-2,8-diazaspiro[4.5]deca-2-yl]propyl}-1H-imidazol-2-yl)methyl](1H-imidazol-2-ylmethyl)amino}methyl)phenyl]thio}acetic acid] | 9.3 | – | – | – | – | –
CCOC(=O)CCc1ccc(CN(Cc2ncc[nH]2)Cc2nccn2CCCN2CCC3(CCN(C(CC)CC)CC3)C2)s1 [Example 42(4), Ethyl 3-[5-({[(1-{3-[8-(1-ethylpropyl)-2,8-diazaspiro[4.5]deca-2-yl]propyl}-1H-imidazol-2-yl)methyl](1H-imidazol-2-ylmethyl)amino}methyl)-2-thienyl]propanoate] | 4.4 | – | – | – | – | –
CCOC(=O)COc1cccc(CN(Cc2ncc[nH]2)Cc2nccn2CCCN2CCC3(CCN(C4CCCCC4)CC3)C2)c1 [Example 40(13), Ethyl (3-{[({1-[3-(8-cyclohexyl-2,8-diazaspiro[4.5]deca-2-yl)propyl]-1H-imidazol-2-yl}methyl)(1H-imidazol-2-ylmethyl)amino]methyl}phenoxy)acetate] | ≤ 3 | – | – | – | – | –

Reference: patent US20090325992A1, “COMPOUND HAVING CYCLIC GROUP BOUND THERETO THROUGH SPIRO BINDING AND USE THEREOF” (ONO PHARMACEUTICAL CO., LTD., priority 2006, published 2009)
